Test results from publication PMC10221159, “Investigation of N-Acetyltransferase 2-Mediated Drug Interactions of Amifampridine: In Vitro and In Vivo Evidence of Drug Interactions with Acetaminophen” (Pharmaceutics, 2023).
Read-outs that look alike come from different tables or passages of the source.

Experiments:
[1] = In vitro metabolic profile of amifampridine (3-N-acetylamifampridine formation) in rat liver S9 fraction; type: in vitro ADME
Procedure: An in vitro metabolic study was performed to investigate the metabolic profile of amifampridine in the rat liver S9 fraction. The reaction mixture, which consisted of rat liver S9 fraction (2 mg/mL protein) and 2 mM acetyl-CoA in potassium phosphate buffer, was prepared and incubated for 5 min in a thermal mixer (200 oscillations/min) at 37 °C. Then, amifampridine was added to the reaction mixture to make the final concentrations of amifampridine at 2, 10, 20, 50, 100, 500, and 1000 μM. After further incubation for 15 min at 37 °C, 50 μL of the sample was transferred into the tube containing 200 μL of ice-cold potassium phosphate buffer and mixed by vortexing. An amount of 50 μL of the mixture was then transferred into the tube containing 100 μL of internal standard (IS; 5 ng/mL ondansetron in acetonitrile), followed by vortexing and centrifugation at 14,000 rpm for 15 min at 4 °C. The supernatant was transferred into vials for HPLC-tandem mass spectrometry (MS/MS) analysis and the concentration of 3-N-acetylamifampridine was determined.
The Vm and Km values, Michaelis–Menten parameters, were determined by linear regression using Lineweaver–Burk equation, as follows: 1/v=Km/Vmax×1/S+1/Vmax where v is the rate of amifampridine metabolism to 3-N-acetylamifampridine in the S9 fraction, [S] is the concentration of amifampridine, Vmax is the maximum metabolic rate of amifampridine, and Km is the concentration of amifampridine at half Vmax. The intrinsic clearance (CLint) was calculated using Vmax/Km, with the assumption that Km is much greater than [S], as is usual in clinical practice.

[2] = In vivo pharmacokinetic interaction study in rats (plasma); design: species or system rat; settings: oral amifampridine 2 mg/kg; for AUC(0-inf) / AUC(0-t) / CL/F / Cmax / MRT / Tmax / Vd/F / half-life / CL renal: male, Sprague-Dawley, rat, po, 2 mg/kg; for AUC(0-inf) / AUC(0-t) / CL/F / Cmax / MRT / Tmax / Vd/F / half-life: plasma; for CL renal: urine and plasma, renal clearance
Procedure: Male Sprague Dawley (SD) rats (7–8 weeks old, 260–330 g) were purchased from Orient Bio, Inc. (Seongnam, Korea). The rats were housed under a light/dark cycle for 12 h and were left for at least a week before the experiment to adapt to the laboratory environment. Water and food were provided ad libitum. The rats were fasted overnight with free access to water prior to pharmacokinetic studies. The protocols for animal experiments were approved in accordance with the Guidelines for Animal Care and Use of Gachon University (approval no.: GIACUC-R2021006; 13 May 2021).
The rats were anesthetized with a mixture of Rompun and Zoletil by intramuscular injection and received an intraperitoneal injection of vehicle (40:60 PEG400:normal saline; n = 8) or 100 mg/kg acetaminophen (n = 8). After 10 min, 2 mg/kg amifampridine (dissolved in saline) was administered orally. Blood samples were collected at 0, 5, 15, 30, 60, 90, 120, 240, and 360 min and centrifuged at 14,000 rpm for 15 min at 4 °C. For analysis of amifampridine and 3-N-acetylamifampridine, 50 μL of plasma samples was mixed with 100 μL IS solution (5 ng/mL ondansetron in acetonitrile) and the mixture was vortexed followed by centrifugation at 14,000 rpm for 15 min at 4 °C. For the analysis of acetaminophen, 200 μL of IS (tolbutamide 200 ng/mL in methanol) was added to the plasma samples which were diluted 10-fold using the blank plasma and then vortexed for one minute. Further, the samples were centrifuged at 14,000 rpm for 15 min at 4 °C. The supernatants were transferred to LC vials for quantification.
Non-compartment analysis (NCA) was performed to calculate the pharmacokinetic parameters for the in vivo study using WinNonlin (Version 8.3. (Pharsight Corporation, Mountain View, CA, USA)). The area under the plasma concentration–time curve from time 0 to infinity (AUCinf) was calculated by the linear trapezoidal method and standard extrapolation using λ, where λ represents the slope of the terminal phase in a semi-log graph for plasma concentration–time profiles. Renal clearance (CLr) was determined by dividing the accumulated amount of drug excreted in the urine by AUCinf.

[3] = Tissue distribution of amifampridine and 3-N-acetylamifampridine in rats; type: in vivo, rat; settings: for Kp at 1 h: rat, 60 min after oral amifampridine 2 mg/kg
Procedure: To investigate the effects of acetaminophen on the tissue distribution of amifampridine and 3-N-acetylamifampridine, rats were sacrificed at 60 min after administration of amifampridine in control and acetaminophen-treated rats (n = 6) as mentioned above, and the tissues, including liver, kidney, heart, lungs, spleen, brain, and muscle tissues, were obtained. Tissue samples were homogenized using a Wheaton^TM Dounce tissue grinder (Wheaton Millipore, Billerica, MA, USA) after adding a three-fold volume of PBS. An amount of 100 μL of tissue homogenates was transferred to the tube and 200 μL of IS solution was then added and vortexed followed by centrifugation at 14,000 rpm for 15 min at 4 °C. The supernatants were transferred to LC vials for quantification. For muscle samples, the supernatant was concentrated using a desiccator and reconstituted with the mobile phase solvent.

[4] = humans, cited from earlier work
[5] = design: method as in PMID 25692017; settings: NAT2 slow vs fast acetylators; cited from earlier work
[6] = acetaminophen-treated (100 mg/kg) vs control rats
[7] = acetaminophen-treated group (100 mg/kg ip)
[8] = 60 min, acetaminophen-treated vs control rats

## Nc1ccncc1N [amifampridine]
[1]; 3-N-acetylamifampridine formation, rat liver S9, Lineweaver–Burk plot
  Vmax: 5130 ± 1100 pmol/min/mg protein
[1]; liver S9 fraction, Vmax/Km, rat liver S9, read-out: CLint
  intrinsic clearance in liver S9 fraction: 78 ± 11 µL/min/mg
[1]; rat liver S9 fraction, 3-N-acetylamifampridine formation, rat liver S9 (2 mg/mL protein), Lineweaver–Burk plot
  Km at 15 min: 66.6 ± 24.2 µM
[2]; [6]
  increase in AUCinf: 185.64%
  increase in Cmax: 208.34%
[2]; [7]
  AUC(0-inf): 434 ng·h/mL
  AUC(0-t): 414 ng·h/mL
  CL/F: 81.7 ± 21.2 mL/min/kg
  Cmax: 200 ± 100 ng/mL
  MRT: 2.08 h
  Tmax: 1 h
  Vd/F: 9.83 ± 4.69 L/kg
  half-life: 1.36 ± 0.416 h
  CL renal: 3.87 ± 0.91 mL/min
[2]; control group
  AUC(0-inf): 152 ng·h/mL
  AUC(0-t): 141 ng·h/mL
  CL/F: 225 ± 38.3 mL/min/kg
  Cmax: 70 ± 20 ng/mL
  MRT: 2.29 h
  Tmax: 0.781 h
  Vd/F: 26.9 L/kg
  half-life: 1.4 ± 0.352 h
  CL renal: 4.89 ± 1.71 mL/min
[3]; [8]
  increase of concentration in liver: 270.26%
  increase of concentration in muscle: 413.11%
  increase of concentration in spleen: 265.17%
[3]; Sprague Dawley, brain, acetaminophen 100 mg/kg, read-out: Tissue partition coefficient (Kp), Brain
  Kp at 1 h: 0.1
[3]; Sprague Dawley, brain, control, read-out: Tissue partition coefficient (Kp), Brain
  Kp at 1 h: 0.1 ± 0.3
[3]; Sprague Dawley, heart, acetaminophen 100 mg/kg, read-out: Tissue partition coefficient (Kp), Heart
  Kp at 1 h: 0.7 ± 0.5
[3]; Sprague Dawley, heart, control, read-out: Tissue partition coefficient (Kp), Heart
  Kp at 1 h: 0.6 ± 0.5
[3]; Sprague Dawley, lungs, acetaminophen 100 mg/kg, read-out: Tissue partition coefficient (Kp), Lungs
  Kp at 1 h: 2.2 ± 2.8
[3]; Sprague Dawley, lungs, control, read-out: Tissue partition coefficient (Kp), Lungs
  Kp at 1 h: 1.7 ± 1.1
[3]; Sprague Dawley, spleen, acetaminophen 100 mg/kg, read-out: Tissue partition coefficient (Kp), Spleen
  Kp at 1 h: 1.6 ± 1
[3]; Sprague Dawley, spleen, control, read-out: Tissue partition coefficient (Kp), Spleen
  Kp at 1 h: 1 ± 0.5
[3]; acetaminophen-treated vs control rats
  decrease of Kp in the kidneys: 51%
[3]; male, Sprague-Dawley, kidney, acetaminophen 100 mg/kg, read-out: Tissue partition coefficient (Kp), Kidney
  Kp at 1 h: 3.6 ± 0.4
[3]; male, Sprague-Dawley, kidney, control, read-out: Tissue partition coefficient (Kp), Kidney
  Kp at 1 h: 7.4 ± 2.7
[3]; male, Sprague-Dawley, liver, acetaminophen 100 mg/kg, read-out: Tissue partition coefficient (Kp), Liver
  Kp at 1 h: 3 ± 1.5
[3]; male, Sprague-Dawley, liver, control, read-out: Tissue partition coefficient (Kp), Liver
  Kp at 1 h: 3.8 ± 2.6
[3]; male, Sprague-Dawley, muscle, acetaminophen 100 mg/kg, read-out: Tissue partition coefficient (Kp), Muscle
  Kp at 1 h: 0.4 ± 0.2
[3]; male, Sprague-Dawley, muscle, control, read-out: Tissue partition coefficient (Kp), Muscle
  Kp at 1 h: 0.5 ± 0.4
[4]; after administration of amifampridine
  dose excreted via the urine within 24 h: 19%
[4]
  dose excreted via the urine within 24 h as amifampridine plus 3-N-acetylamifampridine: More than 90%
  elimination half-life: approximately 2.5 h
[5]
  AUC higher in slow acetylators than in fast acetylators: 5–10 fold
  Cmax higher in slow acetylators than in fast acetylators: approximately 3.5 fold
  higher frequency of drug-related treatment-emergent adverse events in slow than fast acetylators: more than 10 fold
